Assays:
Format in all cases: in vivo
Conditions in all cases: HFD mice, 4 weeks, vs HF group
G6Pase = experiment: Semi-quantitative RT-PCR of liver mRNA: G6Pase
Experimental: (§1) The following experiment was performed and approved by the guidelines of the Institutional Animal Care and Use Committee of Central Taiwan University of Science and Technology. The 4-week old male C57BL/6J mice (total amount n=63) were purchased from the National Laboratory Animal Breeding and Research Center (Taipei, Taiwan). After acclimatization for one week, all of the mice were divided randomly into the control (CON) group and the high-fat diet (HFD) group. […] After HFD exposure for 8 weeks, the HFD group was further randomly subdivided into 6 groups (n=9 per group) to receive different treatments by oral gavage once daily for four weeks and on HFD. […] The HF+B1, HF+B2, and […] are collectively termed BB-treated HFD groups in the following examples. The CON mice were administered vehicle. After dosing for 4 weeks, the mice were given no food at night and sacrificed after 12 h of fasting on the next day. All of the individual tissues were collected and weighed, and portions were instantly frozen using liquid nitrogen and kept at −80° C. for subsequent target gene analysis. Blood samples (0.8 mL) were collected for analysis of blood parameters.
(§2) Total RNA from liver tissue of mice was isolated with a Trizol Reagent (Molecular Research Center, Inc., Cincinnati, Ohio, USA) according to the manufacturer's instructions. The integrity of the extracted total RNA was examined by 2% agarose gel electrophoresis, and the RNA concentration was determined by the ultraviolet (UV) light absorbency at 260 nm and 280 nm (Spectrophotometer U-2800A, Hitachi). The quality of the RNA was confirmed by ethidium bromide staining of 18S and 28S ribosomal RNA after electrophoresis on 2% agarose gel containing 6% formaldehyde.
(§3) Levels of mRNA of genes of interest were quantified by semi-quantitative reverse transcription polymerase chain reaction (RT-PCR). […] PCR products were analyzed by 2% agarose gels and stained with ethidium bromide.

PPARα = experiment: Semi-quantitative RT-PCR of liver mRNA: PPARα
Experimental: as §1, §2, §3

GLUT4 = experiment: Western blotting of membrane GLUT4 in skeletal muscle
Experimental: as §1
The protein concentration in supernatant was determined with a BCA protein assay kit (Thermo Scientific, Rockford, Ill., USA). […] Immunoreactive bands were detected with ECL reagent kit (GE Healthcare BioSciences, Buckinghamshire, UK).

AMPK = experiment: Western blotting of phospho-AMPK/total AMPK in skeletal muscle and liver
Experimental: The following experiment was performed and approved by the guidelines of the Institutional Animal Care and Use Committee of Central Taiwan University of Science and Technology. The 4-week old male C57BL/6J mice (total amount n=63) were purchased from the National Laboratory Animal Breeding and Research Center (Taipei, Taiwan). After acclimatization for one week, all of the mice were divided randomly into the control (CON) group and the high-fat diet (HFD) group. For the following 12 weeks, the CON group (n=9) was kept on a low-fat diet (Diet 12450B, Research Diets, Inc., New Brunswick, N.J., USA), while the HFD group (n=54) was exposed to a high-fat diet (Diet 12451, Research Diets, New Brunswick, N.J., USA). The low-fat diet was composed of protein 20%, carbohydrate 70% and fat 10%, whereas the high-fat diet was composed of protein 20%, carbohydrate 35%, and fat 45% (of total energy, % kcal). After HFD exposure for 8 weeks, the HFD group was further randomly subdivided into 6 groups (n=9 per group) to receive different treatments by oral gavage once daily for four weeks and on HFD. […] The HF+B1, HF+B2, and […] are collectively termed BB-treated HFD groups in the following examples. The CON mice were administered vehicle. After dosing for 4 weeks, the mice were given no food at night and sacrificed after 12 h of fasting on the next day. All of the individual tissues were collected and weighed, and portions were instantly frozen using liquid nitrogen and kept at −80° C. for subsequent target gene analysis. Blood samples (0.8 mL) were collected for analysis of blood parameters.
Protein extractions and immunoblots for the determination of phospho-AMPK (Thr^172) and phospho-Akt (Ser^473) proteins in skeletal muscle and liver tissue of mice (n=9) were carried out. About 0.1 g of liver tissue and skeletal muscle was used for the homogenate samples. Samples were powdered under liquid nitrogen and homogenized for 20 seconds in 500 μL buffer containing 20 mM Tris-HCL1 (pH 7.4 at 4° C.), 2% SDS, 5 mM EDTA, 5 mM EGTA, 1 mM DTT, 100 mM NaF, 2 mM sodium vanadate, 0.5 mM phenylmethylsulfonyl fluoride, 10 μg/mL leupeptin, and […] pepstatin. The protein concentration in supernatant was determined with a BCA protein assay kit (Thermo Scientific, Rockford, Ill., USA). 20 μg of proteins were separated by electrophoresis on a polyacrylamide gel 12% (SDS-PAGE) and transferred to a nitrocellulose membrane. The membranes were blocked with 5% slim milk in Tris-buffered saline (TBS)(Amersham BioSciences, Uppsala, Sweden) containing 0.05% Tween-20 (Bio Rad, CA, USA) and incubated overnight at 4° C. with anti-phospho-AMPK (Abcam Inc., Cambridge, Mass., USA) and anti-phospho-Akt (Cell signaling Technology, Inc., Danvers, Mass., USA) rabbit polyclonal antibodies at 1:200 dilution. Subsequently, the membranes were washed three times with TBS containing 0.05% Tween-20 and incubated with secondary antibody anti-rabbit (1:1000) (Jackson ImmunoResearch Laboratories, Inc., PA, USA) for 1 hour. Immunoreactive bands were detected with ECL reagent kit (GE Healthcare BioSciences, Buckinghamshire, UK). The intensity of blotting was analyzed using Alpha Easy FC software (Alpha Innotech Corporation, Randburg, South Africa). Structural proteins GAPDH (Santa Cruz Biotechnology, CA, USA) in the samples were used as the loading control.

SMILES: OCC1O[C@@H](O[C@@H]2Cc3c(O)cc(O)cc3O[C@@H]2c2ccc(O)c(O)c2)C(O)C(O)[C@@H]1O (single isomer, unassigned; (-)) [compound of formula I, (−)-epicatechin-3-O-β-D-allopyranoside]
- liver mRNA level of G6Pase (G6Pase; 10 mg/kg/day oral gavage): significantly reduced
- liver mRNA level of G6Pase (G6Pase; 20 mg/kg/day oral gavage): significantly reduced
- liver mRNA level of G6Pase (G6Pase; 40 mg/kg/day oral gavage): significantly reduced
- liver PPARα mRNA level (PPARα; 10 mg/kg/day oral gavage): enhanced
- liver PPARα mRNA level (PPARα; 20 mg/kg/day oral gavage): enhanced
- liver PPARα mRNA level (PPARα; 40 mg/kg/day oral gavage): enhanced
- protein level of GLUT4 at the plasma membrane (GLUT4; 10 mg/kg/day oral gavage): significantly enhanced
- protein level of GLUT4 at the plasma membrane (GLUT4; 20 mg/kg/day oral gavage): significantly enhanced
- protein level of GLUT4 at the plasma membrane (GLUT4; 40 mg/kg/day oral gavage): significantly enhanced
- expression level of phospho-AMPK/total AMPK (AMPK; liver, 10 mg/kg/day oral gavage): enhanced
- expression level of phospho-AMPK/total AMPK (AMPK; liver, 20 mg/kg/day oral gavage): enhanced
- expression level of phospho-AMPK/total AMPK (AMPK; liver, 40 mg/kg/day oral gavage): enhanced
- expression level of phospho-AMPK/total AMPK (AMPK; skeletal muscle, 10 mg/kg/day oral gavage): enhanced
- expression level of phospho-AMPK/total AMPK (AMPK; skeletal muscle, 20 mg/kg/day oral gavage): enhanced
- expression level of phospho-AMPK/total AMPK (AMPK; skeletal muscle, 40 mg/kg/day oral gavage): enhanced

From US9877980B2, “Method and composition for treatment or prevention of type 2 diabetes and hyperlipidemia” (Chun-Ching Shih, priority 2016, dated 2018)
